One may read the IC50 as the concentration that gives 50% inhibition.

Read-outs that look alike come from different tables or passages of the source.

The values below come from patent US4666908A, “5-Substituted pyrazolo[4,3-d]pyrimidine-7-ones and methods of use” (Warner-Lambert Company, priority 1985, dated 1987).

One assay addresses T1, adenosine A1 receptor (Rattus norvegicus, UniProt P25099).
T1 construct: Whole brain minus cerebellum and brainstem from male Long Evans rats; from tissue; host or cells: whole brain minus cerebellum and brainstem, male Long Evans rats (membranes)
T1 sequence (P25099 1-326): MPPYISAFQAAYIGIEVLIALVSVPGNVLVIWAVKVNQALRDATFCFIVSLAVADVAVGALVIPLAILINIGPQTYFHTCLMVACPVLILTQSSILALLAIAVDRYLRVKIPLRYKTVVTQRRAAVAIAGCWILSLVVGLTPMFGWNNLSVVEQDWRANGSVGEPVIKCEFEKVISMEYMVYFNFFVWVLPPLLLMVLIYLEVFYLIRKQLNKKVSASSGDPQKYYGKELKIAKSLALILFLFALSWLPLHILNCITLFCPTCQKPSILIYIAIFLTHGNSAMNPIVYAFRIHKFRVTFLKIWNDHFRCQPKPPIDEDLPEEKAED
Nature of the assay: Adenosine Receptor Binding - A1 Receptor Affinity (RBA1), [3H]-N6-cyclohexyladenosine displacement. The note with it: [3H]-CHA 1.0 nM, rat brain membranes, 25° C., one hour; read-out: RBA-1, IC50 for adenosine A1 receptor affinity. On the procedure: Whole brain minus cerebellum and brainstem from male Long Evans rats (150-200 g) was homogenized in 30 volumes of ice-cold 0.05M Tris-HCl buffer pH 7.7 using a Brinkman Polytron PT-10, (setting number 6 for 20 seconds) and centrifuged for ten minutes at 20,000×g (Sorvall RC-2), 4° C. The supernatant was discarded, and the pellet was resuspended and centrifuged as before. […] The homogenate was again centrifuged, and the final pellet was resuspended in ice-cold 0.05 M Tris-HCl buffer pH 7.7 to a concentration of 20 mg/ml original wet tissue weight and used immediately. […] Incubation volume was 2 ml. […] The filters were rinsed three times with 5 ml of ice cold 0.05 M Tris-HCl buffer pH 7.7. The radio-labeled ligand retained on the filter was measured by liquid scintillation spectrophotometry after shaking the filters for one hour or longer on a mechanical shaker in 10 ml of Beckman Ready-Solv HP scintillation cocktail. […] The Hill coefficient was calculated by linear regression of the line obtained by plotting the log of the bound radioligand vs the log of the [formula] The maximal number of binding sites (Bmax) was calculated from the Scatchard plot.

The next assay has as its system Type 1 Phosphodiesterase. Nature of the assay: Phosphodiesterase (PDE) Inhibition, Type 1 Phosphodiesterase. The format is biochemical, bovine (coronary arteries). The note with it: Type 1 PDE, at 10^-5 M; for % Inhibition of hydrolysis of 3H-cAMP: substrate 3H-cAMP 1.0 μM; for % Inhibition of hydrolysis of 3H-cGMP: substrate 3H-cGMP 1.0 μM. An excerpt: (§1) The method of Thompson, et al (Thompson, W. J., Terasaki, W. L., Epstein, P. M., Strada, S. J., Adv. Cyclic Nucleotide Res., 10:69-92, 1979), with minor modifications, was used to isolate phosphodiesterases from vascular smooth muscle. Bovine coronary arteries (right, anterior descending, and left circumflex arteries) from hearts obtained from a local slaughterhouse were used for these studies. Arteries from two hearts were used for each isolation. Hearts were kept on ice and the arteries were dissected within two hours after the animals were sacrificed. After removing all fat and connective tissue, the arteries were everted, cut into cubes with a single edge razor blade and homogenized with a Brinkman Polytron three times at a rheostat setting of 10.0 in four volumes of the PDE isolation buffer (10 mM Tris-HCl/pH 7.5, 2 mM MgCl2, and 1 mM dithiothreitol). The resulting homogenate was sonicated (30 sec/ml homogenate) and then centrifuged at 30,000 xg for 20 minutes. This and all subsequent procedures were performed at 4° C. The resulting supernatant was filtered through four layers of gauze, and applied to a DEAE-cellulose column (30×1.5 cm), prepared as described by Cheung (Cheung, W. Y., Biochim. Biophys. Acta, 191:303-315, 1969), and equilibrated with freshly prepared 70 mM sodium acetate/5 mM 2-mercaptoethanol (pH 6.5). The column was then washed with 2-3 bed volumes of sodium acetate/2-mercaptoethanol, after which the phosphodiesterases were eluted from the column using a continuous 70-1,000 mM sodium acetate gradient (pH 6.5, containing 5 mM 2-mercaptoethanol; total volume 400 ml). The flow rate was approximately equal to 25 ml/hr. Eight ml fractions were collected and assayed for cyclic AMP- and cyclic GMP-phosphodiesterase activity in the presence and absence of 0.1 units of calmodulin and 10 mM CaCl2. Appropriate fractions were pooled and dialyzed against 70 mM sodium acetate/5 mM 2-mercaptoethanol for 20 hours.
(§2) Following complete separation, the combined phosphodiesterase fractions were concentrated to 14% of the original volume using an Amicon ultrafiltration cell fitted with a UM-10 membrane, according to the method of Wells, et al (Wells, J. N., Baird, C. E., Wu, Y. J., Hardman, J. G., Biochim. Biophys. Acta, 384:430-442, 1975). Following concentration, the protein was then diluted to 65% with ethylene glycol monoethyl ether, and stored at -20° C.
(§3) Phosphodiesterase activity was measured as described previously (Weishaar, P. E., Quade, M., Boyd, D., Schenden, J., Mark, S. S., Kaplan, H. R., Drug Devel. Res., 3:517-534, 1983), in a reaction medium containing 40 mM Tris-HCl (pH 8.0), 5 mM MgCl and 4 mM 2-mercaptoethanol. Unless otherwise noted, the concentration of substrate (^3 H-cyclic AMP or ^3 H-cyclic GMP) was 1.0 μM. All agents examined were dissolved in dimethyl sulfoxide (DMSO). Final concentration of the reaction medium was either 2.5% (cardiac and platelet studies) or 1.25% (smooth muscle studies). This concentration of DMSO produced an approximately 10% inhibition of enzyme activity.

Another assay has as its system Type 3 Phosphodiesterase. As to the kind of experiment: Phosphodiesterase (PDE) Inhibition, Type 3 Phosphodiesterase. It is filed as biochemical, bovine (coronary arteries). The note with it: Type 3 PDE, at 10^-5 M, substrate 3H-cAMP 1.0 μM.
Description: as §1, §2, §3

For assay [1], the system named is pentobarbital-anesthetized dog. As to the kind of experiment: In Vivo Myocardial Inotropic Activity in Anesthetized Dog (CVAD). The settings on record: for change in vivo at 0.3 mg/kg: 0.30 mg/kg IV; for change in vivo at 1 mg/kg: 1.00 mg/kg IV; for change in vivo at 3.1 mg/kg: 3.10 mg/kg IV; for change in vivo at 0.31 mg/kg: 0.31 mg/kg IV. Details: species or system dog (adult mongrel). The procedure:
This test procedure is described in the following paragraphs.
This screen consists of determining the effects of increasing intravenous doses of compound on mycardial contractility (dP/dt max of left ventricular blood pressure), heart rate, and aortic blood pressure of the pentobarbital-anesthetized dog.
Adult mongrel dogs of either sex are anesthetized with pentobarbital, 35 mg/kg, IV, and are subsequently maintained under anesthesia with a continuous infusion of pentobarbital, 3.5 mg/kg/hour. The trachea is intubated but the animals are permitted to breathe spontaneously. A cannula is inserted into the femoral vein for administrating test agents. A Millar catheter tip pressure transducer or a fluid filled catheter is inserted into the ascending aorta via the femoral artery for measuring aortic blood pressure. A Millar catheter tip pressure transducer is passed into the left ventricle via the left carotid artery for measuring left ventricular blood pressure. Needle electrodes are placed subcutaneously for recording a lead II electrocardiogram (ECG).
Left ventricular and aortic blood pressures are recorded on a strip chart recorder. Heart rate, using a biotachometer triggered from the R wave of the ECG, and the first derivative of left ventricular blood pressure (dP/dt), obtained with a differentiator amplifier coupled to the corresponding pressure amplifier, are also recorded. A period of at least 30 minutes is utilized to obtain control data prior to administration of test compound.
Ethanol or dimethylacetamide can be used as solvents if adequate dilutions can be made. Appropriate vehicle controls are administered when needed.
Each dose of the test compound is administered in a volume of […] over a period of one minute.

The mark [2] stands for this setting: Canis lupus familiaris, iv, 0.10 mg/kg IV, read-out: Percent Change Blood Pressure.
Where [3] appears, read: Canis lupus familiaris, iv, 0.10 mg/kg IV, read-out: Percent Change Heart Rate.
[4] abbreviates: Canis lupus familiaris, iv, 0.10 mg/kg IV, read-out: Percent Change Myocardial Contractility.
The mark [5] stands for this setting: Canis lupus familiaris, iv, read-out: Percent Change Blood Pressure.
Setting [6] is: Canis lupus familiaris, iv, read-out: Percent Change Heart Rate.
Where [7] appears, read: Canis lupus familiaris, iv, read-out: Percent Change Myocardial Contractility.

Turning to `CCn1nc(C)c2nc(-c3ccncc3)[nH]c(=O)c21` [Example 3, 1-Ethyl-3-methyl-5-(4-pyridyl)pyrazolo[4,3-d]pyrimidine-7-one], the IC50 at adenosine A1 receptor was determined as 0.237 µM. Also, the “% Inhibition of hydrolysis of 3H-cAMP” value was 33% in the assay with Type 1 Phosphodiesterase and 55% with Type 3 Phosphodiesterase. In the assay with Type 1 Phosphodiesterase, the “% Inhibition of hydrolysis of 3H-cGMP” value is listed as 19%. The change in vivo at 0.1 mg/kg in assay [1] (setting [2]) is 2%; in assay [1] (setting [3]), 4%; in assay [1] (setting [4]) it was 12%. The change in vivo at 0.3 mg/kg in assay [1] (setting [5]) came out at 2%; in assay [1] (setting [6]), 7%; in assay [1] (setting [7]), 20%. Besides, the values for the change in vivo at 1 mg/kg in assay [1] (setting [5]), in assay [1] (setting [6]) and in assay [1] (setting [7]) were 2%, -1% and 47%, respectively. The change in vivo at 3.1 mg/kg turned out to be 8% in assay [1] (setting [5]), 16% in assay [1] (setting [6]) and 91% in assay [1] (setting [7]).
Regarding `Cc1nn(C)c2c(=O)[nH]c(-c3cccnc3)nc12` [Example 4, 1,3-Dimethyl-5-(3-pyridyl)pyrazolo[4,3-d]pyrimidine-7-one], the IC50 on adenosine A1 receptor was 3.09 µM. Moreover, the “% Inhibition of hydrolysis of 3H-cAMP” value was 6% with Type 1 Phosphodiesterase and 3% with Type 3 Phosphodiesterase. For the same compound, the “% Inhibition of hydrolysis of 3H-cGMP” value in the assay with Type 1 Phosphodiesterase is 4%. Further, the “Percent Change Blood Pressure” value in assay [1] (0.10 mg/kg IV) is 0/0. Moreover, the results for the change in vivo at 0.1 mg/kg in assay [1] (setting [3]) and in assay [1] (setting [4]) were 0% and 2%, respectively. The change in vivo at 0.31 mg/kg was determined as 1% in assay [1] (setting [6]) and 7% in assay [1] (setting [7]). The change in vivo at 1 mg/kg in assay [1] (setting [6]) turned out to be 4%; in assay [1] (setting [7]), 27%. For the same compound, the results for the change in vivo at 3.1 mg/kg in assay [1] (setting [6]) and in assay [1] (setting [7]) were 9% and 55%, respectively.
With `CCn1nc(C)c2nc(-c3ccccc3)[nH]c(=O)c21` [Example 5, 1-Ethyl-3-methyl-5-phenylpyrazolo[4,3-d]pyrimidine-7-one], the 50% inhibitory concentration (IC50) at adenosine A1 receptor was 0.67 µM. In addition, the “% Inhibition of hydrolysis of 3H-cAMP” value in the assay on Type 1 Phosphodiesterase is reported as 29%; in the assay on Type 3 Phosphodiesterase, 56%. Moreover, in the assay on Type 1 Phosphodiesterase, the “% Inhibition of hydrolysis of 3H-cGMP” value amounted to 29%. The results for the change in vivo at 0.1 mg/kg in assay [1] (setting [2]), in assay [1] (setting [3]) and in assay [1] (setting [4]) were 2%, 7% and 10%, respectively. Further, the change in vivo at 1 mg/kg in assay [1] (setting [5]) turned out to be 1%; in assay [1] (setting [6]) it was 43%; in assay [1] (setting [7]), 77%. Besides, the values for the change in vivo at 3.1 mg/kg in assay [1] (setting [5]), in assay [1] (setting [6]) and in assay [1] (setting [7]) were 1%, 50% and 100%, respectively.
For `Cc1nn(C)c2c(=O)[nH]c(-c3ccccc3)nc12` [Example 6, 1,3-Dimethyl-5-phenylpyrazolo[4,3-d]pyrimidine-7-one], the 50% inhibitory concentration (IC50) at adenosine A1 receptor worked out at 1.02 µM. In addition, the “% Inhibition of hydrolysis of 3H-cAMP” value in the assay with Type 1 Phosphodiesterase is recorded as 6%; in the assay with Type 3 Phosphodiesterase, 35%. Besides, in the assay on Type 1 Phosphodiesterase, the “% Inhibition of hydrolysis of 3H-cGMP” value came to 14%. Further, the change in vivo at 0.1 mg/kg in assay [1] (setting [3]) is -1%; in assay [1] (setting [4]) it was 4%. The change in vivo at 0.31 mg/kg was -4% in assay [1] (setting [6]) and 3% in assay [1] (setting [7]). Also, the values for the change in vivo at 1 mg/kg in assay [1] (setting [6]) and in assay [1] (setting [7]) were 7% and 20%, respectively. In addition, the change in vivo at 3.1 mg/kg came out at 37% in assay [1] (setting [6]) and 45% in assay [1] (setting [7]).
Take `Cc1ccc(-c2nc3c(C)nn(C)c3c(=O)[nH]2)cc1` [Example 8, 1,3-Dimethyl-5-(4-methylphenyl)pyrazolo[4,3-d]pyrimidine-7-one]: at adenosine A1 receptor, the IC50 came out at 0.417 µM. Besides, the results for the “% Inhibition of hydrolysis of 3H-cAMP” value in the assay with Type 1 Phosphodiesterase and in the assay with Type 3 Phosphodiesterase were 14% and 15%, respectively. For the same compound, in the assay on Type 1 Phosphodiesterase, the “% Inhibition of hydrolysis of 3H-cGMP” value came out at 15%. In addition, the change in vivo at 0.1 mg/kg is -1% in assay [1] (setting [2]), 5% in assay [1] (setting [3]) and 7% in assay [1] (setting [4]). In addition, the change in vivo at 0.3 mg/kg in assay [1] (setting [5]) worked out at 0%; in assay [1] (setting [6]), 5%; in assay [1] (setting [7]) it was 10%. The change in vivo at 1 mg/kg came out at 3% in assay [1] (setting [5]), 6% in assay [1] (setting [6]) and 20% in assay [1] (setting [7]). Besides, the change in vivo at 3.1 mg/kg in assay [1] (setting [5]) came out at 3%; in assay [1] (setting [6]), 10%; in assay [1] (setting [7]), 22%. Besides, the change in vivo at 10 mg/kg in assay [1] (Canis lupus familiaris, iv, 10.00 mg/kg IV, read-out: Percent Change Myocardial Contractility) came out at 82%.
